Experiment [1] relates to Plasmodium falciparum. Kind of experiment: ST_JUDE: Plasmodium falciparum 3D7 EC50 (uM) as measured by SYBR green dye. The experiment is classed as functional, organism-based.
In experiment [2] the test system is Plasmodium falciparum. Briefly: ST_JUDE: Plasmodium falciparum K1 EC50 (uM) as measured by SYBR green dye. The experiment is classed as functional, organism-based.

Some results are limits rather than exact numbers.

As to `Cc1ccc(Oc2nc(-c3ccncc3)nc3ccccc23)cc1`, the EC50 came out at 3.48 µM in experiment [1] and 2.26 µM in experiment [2].
Turning to `Cc1ccccc1NC(=O)C1c2ccccc2C(=O)N2CCc3ccccc3C12` (stereo not given), the EC50 in experiment [1] was 4.15 µM; in experiment [2] it was over 15 µM.
Regarding `Fc1ccccc1Nc1nc(NCc2ccccc2)c2ccccc2n1`, the figures for the EC50 in experiment [1] and in experiment [2] were 3.46 µM and 9.11 µM, respectively.
For `CCc1ccccc1NC(=O)c1csc2c1CCC(C)C2` (stereo not given), in that order: over 15 µM and over 15 µM.
For the compound `COc1ccc(Nc2cc(C)nc(Nc3ccc(NS(=O)(=O)c4ccc(F)cc4)cc3)n2)cc1`, the 50% effective concentration (EC50) was 1.55 µM in experiment [1] and over 15 µM in experiment [2].
Turning to `COc1ccc2c(ccc(/C=C3\C=CC=CN3C)[n+]2C)c1`, the values for the 50% effective concentration (EC50) in experiment [1] and in experiment [2] were 1.17 µM and 0.842 µM, respectively.
For `CCOc1ccc2c(c1)C(=NNC(=N)N)c1cc(OCC)ccc1-2`, in that order: 0.398 µM and 6.96 µM.
In the same order, the values of `CCCCC(O)(c1ccc(OC)cc1)C(CN1CCCCC1)c1ccccc1` (stereo not given) are 4.6 µM and 2.73 µM.
For `CCOC(=O)c1ccc(Nc2nc3nonc3nc2O)cc1`, in that order: over 15 µM and over 15 µM.
Consider `COc1cc2c(cc1OC)C(C(=O)Nc1ccc(C(C)C)cc1)C(c1cccs1)N(C)C2=O` (stereo not given), for which the EC50 in experiment [1] is over 15 µM; in experiment [2], 3.45 µM.
On to `OCCN1CCN(c2nc(Nc3ccc(F)cc3)c3cnn(-c4ccccc4)c3n2)CC1`, for which the concentration for a half-maximal effect (EC50) in experiment [1] was found to be 1.21 µM; in experiment [2], 1.38 µM.
Consider `C=CCOC(=O)C1=C(C)N=C2CCCC(O)=C2C1c1ccc(OCC)c(OC)c1` (stereo not given), for which the EC50 in experiment [1] is over 15 µM; in experiment [2], 5.26 µM.
In the same order, the values of `CC(C)c1ccc(NC(=O)CSc2n[nH]c(-c3ccccc3Cl)n2)cc1` are 4.78 µM and 4.96 µM.
For `CC(C)(CO)CN1CCC(C(=O)Nc2ccc(-c3nc4ccccc4[nH]3)cc2)CC1`, in that order: 6.81 µM and over 15 µM.
In the same order, the values of `CCc1ccc(S(=O)(=O)Nc2ccc(Nc3nc(C)cc(N4CCCC4)n3)cc2)cc1` are 1.42 µM and over 15 µM.
`COc1ccc(OCC(O)Cn2c(C)[n+](C)c3ccccc32)cc1` (stereo not given): the concentration giving a half-maximal response (EC50) in experiment [1] and in experiment [2] was over 15 µM each time.
Consider `CCO/C(O)=C1\C(C)=NC2=C(C(=O)CC(c3ccc(OC)c(OC)c3)C2)C1c1cccc([N+](=O)[O-])c1` (stereo not given), for which the half-maximal effective concentration (EC50) in experiment [1] and in experiment [2] was over 15 µM throughout.
`COCCn1c(SCC(=O)Nc2cccc(F)c2)nc2c(c1=O)SC(C)C2` (stereo not given): the concentration for a half-maximal effect (EC50) in experiment [1] and in experiment [2] was over 15 µM throughout.
Consider `CCOC(=O)C1=C(CN(C)c2ccc(F)cc2)NC(=O)NC1c1ccc(Cl)cc1` (stereo not given), for which the EC50 in experiment [1] was over 15 µM; in experiment [2], 6.3 µM.
For `O=C(Nc1nc(-c2ccccn2)cs1)c1ccccc1[N+](=O)[O-]`, in that order: 4.99 µM and 6.94 µM.
For `CCCN(CCC)C(=O)c1ccc2c(Cl)c3c(nc2c1)CCCC3`, in that order: over 15 µM and over 15 µM.
Turning to `CCOc1ccc(C2c3cccn3CCN2C(=O)NCc2ccccc2)cc1` (stereo not given), the 50% effective concentration (EC50) is 3.98 µM in experiment [1] and over 15 µM in experiment [2].
For the compound `CCCCCCCOC(=O)c1[nH]c2c(c1C)C(=O)CC(c1ccco1)C2` (stereo not given), the EC50 in experiment [1] worked out at 2.01 µM; in experiment [2], 1.19 µM.
For `CO/C(O)=C1\C(C)=NC2=C(C(=O)CC(c3ccccc3OC)C2)C1c1cccs1` (stereo not given), in that order: 3.91 µM and 1.72 µM.
In the same order, the values of `COCCN1C(=O)c2ccccc2C(C(=O)Nc2ccc(F)c(Cl)c2)C1c1cccs1` (stereo not given) are 2.59 µM and 2.6 µM.
For `Cn1c(=N)n(CC(O)c2ccc(Cl)c(Cl)c2)c2ccccc21` (stereo not given), in that order: 2.3 µM and 2.43 µM.
Take `CCOc1ccc(Nc2c3ccccc3nc3ccccc23)cc1`: the EC50 amounted to 5.72 µM in experiment [1] and 1.91 µM in experiment [2].
For `C#CC[n+]1ccn2cccc2c1C`, in that order: 1.08 µM and 0.607 µM.
On to `COc1ccc(Nc2cc(C)nc(Nc3ccc(NS(=O)(=O)c4cccc(F)c4)cc3)n2)cc1`, for which the results for the concentration for a half-maximal effect (EC50) in experiment [1] and in experiment [2] were 2.05 µM and 7.31 µM, respectively.
Turning to `CCN1CCN(c2cc(C)c3cc(NC(=S)N4CCC(N5CCCCC5)CC4)ccc3n2)CC1`, the EC50 in experiment [1] worked out at 5.91 µM; in experiment [2], 7.89 µM.
For `O=C(N/N=C/c1cc(Cl)cc(Cl)c1O)NC12CC3CC(CC(C3)C1)C2`, in that order: over 15 µM and over 15 µM.
`CCCCNC(=O)CSCc1cnn(-c2ccccc2)c1-n1cccc1`: the 50% effective concentration (EC50) in experiment [1] worked out at 0.506 µM; in experiment [2], 4.06 µM.
For `COc1ccc(-c2nn(C)c3sc(C(=O)Nc4cccc(SC)c4)cc23)cc1OC`, in that order: over 15 µM and 5.24 µM.
Consider `O=[N+]([O-])c1ccc(NC(=S)Nc2cc(C(F)(F)F)cc(C(F)(F)F)c2)cc1`, for which the concentration for a half-maximal effect (EC50) in experiment [1] worked out at 1.64 µM; in experiment [2], 0.631 µM.
For `COc1nc(-c2ccncc2)nc2ccccc12`, in that order: over 15 µM and over 15 µM.
For `CCOc1c(Br)cc(C2C(C(=O)OC)=CN(C(C)C)C=C2C(=O)OC)cc1OC`, in that order: 4.03 µM and 3.44 µM.
For `CCN(CC)c1cc(C)c2cc(NC(=O)c3cccc([N+](=O)[O-])c3)ccc2n1`, in that order: 0.59 µM and over 15 µM.
As for `Cc1ccccc1NC(=O)Nc1ccnn1C1CCN(Cc2ccc(OC(C)C)cc2)CC1`, the values for the concentration for a half-maximal effect (EC50) in experiment [1] and in experiment [2] were 6.74 µM and over 15 µM, respectively.
For `CCN1/C(=C/c2sc3ccc(C(=O)OC)cc3[n+]2CC)C=Cc2cc(OC)ccc21`, in that order: 0.0668 µM and 0.154 µM.
On to `CNc1c([N+](=O)[O-])nn(-c2ccc(Cl)cc2)[n+]1[O-]`, for which the EC50 in experiment [1] was over 15 µM; in experiment [2], 3.76 µM.
Turning to `COc1cccc2c(C)nc(N=C(N)N)nc12`, the 50% effective concentration (EC50) in experiment [1] and in experiment [2] was over 15 µM throughout.
Take `CCCCNc1nc(Nc2cccc(C)c2)c2cnn(-c3ccccc3)c2n1`: the EC50 was over 15 µM in experiment [1] and 7.9 µM in experiment [2].
For `Cc1c(Cl)cccc1NC(=O)c1ccccc1[N+](=O)[O-]`, in that order: over 15 µM and over 15 µM.
In the same order, the values of `C=CCN1C(=O)c2[nH]nc(-c3c(C)cc(C)cc3O)c2C1c1ccc(OCC)cc1` (stereo not given) are 2.74 µM and 1.72 µM.
In the case of `CCCC(=O)N1CCN(c2ccc(NC(=O)c3cccc([N+](=O)[O-])c3)cc2Cl)CC1`, the concentration giving a half-maximal response (EC50) in experiment [1] and in experiment [2] was over 15 µM throughout.
Turning to `COc1ccc(C)cc1S(=O)(=O)Nc1ccc(Nc2nc(C)cc(N3CCCC3)n2)cc1`, the 50% effective concentration (EC50) in experiment [1] is 0.759 µM; in experiment [2], over 15 µM.
For `CCCCc1ccc(NC(=S)NN2CCN(C)CC2)cc1`, in that order: over 15 µM and over 15 µM.
`CCOC(=O)c1ccc2nc(C)cc(Nc3ccc(C)c(Cl)c3)c2c1`: the 50% effective concentration (EC50) in experiment [1] is 1.9 µM; in experiment [2] it was over 15 µM.
In the same order, the values of `O=C(CCc1ccccc1)N(Cc1cccnc1)c1nc2ccc(F)cc2s1` are over 15 µM and over 15 µM.
For the compound `CCc1ccc(C2C(C#N)=C(N)N(c3cccc(Cl)c3)C3=C2C(=O)CCC3)s1` (stereo not given), the concentration giving a half-maximal response (EC50) in experiment [1] and in experiment [2] was over 15 µM in each case.
As for `COc1ccc(CN2CCCC(N3CCN(c4ccc(F)cc4)CC3)C2)c(O)c1` (stereo not given), the EC50 in experiment [1] stood at 1.61 µM; in experiment [2], 1.04 µM.
For `CC(C)(C)c1ccc(C(=O)Nc2c3c(nn2-c2ccc([N+](=O)[O-])cc2)CS(=O)(=O)C3)cc1`, in that order: 10.6 µM and 3.09 µM.
Regarding `Cc1cccc2nc(Cn3c(=O)n(Cc4ccc5c(c4)OCO5)c(=O)c4ccc(C(=O)NC5CCCCC5)cc43)cc(=O)n12`, the concentration for a half-maximal effect (EC50) in experiment [1] and in experiment [2] was over 15 µM each time.
`Cc1cc(C)c2nc(NNC(=O)c3ccc(S(=O)(=O)N(C)C)cc3)sc2c1`: the values for the EC50 in experiment [1] and in experiment [2] were 6.63 µM and 4.88 µM, respectively.
As for `COc1ccc(CCNC(=S)Nc2cccc(Cl)c2)cc1OC`, the half-maximal effective concentration (EC50) was 5.39 µM in experiment [1] and 3.98 µM in experiment [2].
For `O=C(Nc1cccc(C2=NCCN2)c1)Nc1cccc(C2=NCCN2)c1`, in that order: 1.89 µM and 0.23 µM.
On to `C=C(C)CCC(C)N1CCC(N2CCC(C(=O)NCCc3ccccc3)CC2)CC1` (stereo not given), for which the results for the EC50 in experiment [1] and in experiment [2] were 4.26 µM and over 15 µM, respectively.
For `Cc1ccc2ccc(C(Nc3ccccn3)c3ccccc3Br)c(O)c2n1` (stereo not given), in that order: 1.49 µM and 1.32 µM.
In the same order, the values of `O=[N+]([O-])c1cccc(C2Nc3ccccc3-c3nc4ccccc4n32)c1` (stereo not given) are 3.69 µM and 4.27 µM.
In the case of `Cc1cccc(C(=O)ONC(=N)Cc2cccc3ccccc23)c1`, the results for the EC50 in experiment [1] and in experiment [2] were 4.7 µM and 2.63 µM, respectively.
As to `CC1CCN(Cc2cc(COCc3ccccc3)c3cccnc3c2O)CC1`, the EC50 in experiment [1] worked out at 2.87 µM; in experiment [2] it was 3.19 µM.
For the compound `CCOC(=O)C1=C(CN(C)c2ccc(F)cc2)NC(=O)NC1c1ccc(F)cc1` (stereo not given), the results for the EC50 in experiment [1] and in experiment [2] were 3.51 µM and 1.23 µM, respectively.
With `Cc1n(CC(O)COc2cccc(Cl)c2)c2ccccc2[n+]1C` (stereo not given), the concentration for a half-maximal effect (EC50) in experiment [1] and in experiment [2] was over 15 µM throughout.
As to `CCc1cc(-c2[nH]nc(C)c2Oc2ccccc2)c(O)cc1OC(C)C`, the concentration giving a half-maximal response (EC50) in experiment [1] is 3.66 µM; in experiment [2], 1.46 µM.
For `CCCOc1ccc(C(NC(=O)CCl)NC(=O)CCl)cc1OC`, in that order: 3.99 µM and 3.74 µM.
On to `CCCc1cc(O)nc(Nc2ccc(Cl)c(C(F)(F)F)c2)n1`, for which the EC50 amounted to 3.09 µM in experiment [1] and 2.84 µM in experiment [2].
In the same order, the values of `CCOCC(=O)Nc1ccc(S(=O)(=O)N2CCC(c3nc4ccccc4[nH]3)CC2)cc1` are over 15 µM and over 15 µM.
For `CCN(CC)c1cc(C)c2cc(NC(=O)c3ccc(OC)c(OC)c3)ccc2n1`, in that order: 2.29 µM and over 15 µM.
With `CCOc1cc(C2CC(=O)NC3=C2C(=O)CC(c2ccc(OC)cc2)C3)cc(Br)c1O` (stereo not given), the EC50 in experiment [1] was 1.13 µM; in experiment [2] it was 1.53 µM.
For `O=C(Nc1ccc(Cl)cc1)Nc1ccc(F)c(Cl)c1`, in that order: 3.72 µM and 3.57 µM.

For orientation: EC50 means the concentration at which the effect is half-maximal. A lower EC50 goes with higher potency in that assay.

(Values after ChEMBL document CHEMBL1154198, “Chemical genetics of Plasmodium falciparum” (Nature, 2010).)
